The values that follow come from ChEMBL document CHEMBL3351362, “In vitro antiparasitic activity of new thiosemicarbazones in strains of Trypanosoma cruzi” (Eur J Med Chem, 2014).

Molecules are shown by their SMILES. Converted amounts (≈) assume the structure as drawn.

The nature of data set [1]: Induction of apoptosis in human monocytes assessed as viable cells using Annexin V/propidium iodide by flow cytometry (reference value: 97.53 %). To be noted: read-out: Activity. The data set is classed as cell-based, Monocyte.
Data set [2] deals with Trypanosoma cruzi. Briefly: Trypanocidal activity against epimastigote forms of Trypanosoma cruzi Punta Lobos after 24 hrs. The format is functional.
In data set [3] the test system is Trypanosoma cruzi. Kind of data set: Trypanocidal activity against epimastigote forms of Trypanosoma cruzi Queretaro after 24 hrs. The data set is classed as functional.
The nature of data set [4]: Induction of apoptosis in human platelets assessed as necrotic cells after 10 mins using Annexin V/propidium iodide by flow cytometry (reference value: 0.07 %). The format is cell-based. The conditions noted are these: platelet.
A short description of data set [5]: Induction of apoptosis in human platelets assessed as late apoptotic cells after 10 mins using Annexin V/propidium iodide by flow cytometry (reference value: 0.02 %). The data set is classed as cell-based. To be noted: platelet.
A short description of data set [6]: Induction of apoptosis in human platelets assessed as viable cells after 10 mins using Annexin V/propidium iodide by flow cytometry (reference value: 89.61 %). The data set is classed as cell-based, Platelet. To be noted: read-out: Activity.
The nature of data set [7]: Induction of apoptosis in human monocytes assessed as necrotic cells using Annexin V/propidium iodide by flow cytometry (reference value: 0.02 %). The format is cell-based. The conditions noted are these: monocyte.
Data set [8] in a line: Induction of apoptosis in human monocytes assessed as late apoptotic cells using Annexin V/propidium iodide by flow cytometry (reference value: 0.27 %). The data set is classed as cell-based. The conditions noted are these: monocyte.
The nature of data set [9]: Induction of apoptosis in human monocytes assessed as early apoptotic cells using Annexin V/propidium iodide by flow cytometry (reference value: 2.18 %). The data set is classed as cell-based. The conditions noted are these: monocyte.
Data set [10] can be described thus: Activation of human platelets assessed as CD62P expression at 3.9 ug/ml by flow cytometry relative to control. To be noted: platelet. The data set is classed as cell-based.
The nature of data set [11]: Induction of apoptosis in human platelets assessed as early apoptotic cells after 10 mins using Annexin V/propidium iodide by flow cytometry (reference value: 10.30 %). The data set is classed as cell-based. The conditions noted are these: platelet.

As to `NC(=S)N/N=C/c1ccc(Sc2ccc(C(F)(F)F)cc2)o1`, the viability in data set [1] came out at 72.9%. Also, the results for the 50% lethal concentration (LC50) in the data set with Trypanosoma cruzi [2] and in the data set with Trypanosoma cruzi [3] were 8.3 µg/mL (≈ 24 µM) and 29.5 µg/mL (≈ 85.4 µM), respectively. Moreover, the Activity in [4] was 0.16%; in data set [5], 0.08%; in data set [7] it was 1.18%; in [8], 4.48%; in data set [9] it was 21.44%; in data set [10], 18.56%. Further, in data set [11], the Activity came to 20.39%. In addition, the viability at 10 min in data set [6] stood at 79.4%.

Take `NC(=S)N/N=C/c1ccc(Sc2ccccc2C(F)(F)F)o1`: in data set [1], the viability came to 70.7%. Moreover, the LC50 with Trypanosoma cruzi [2] was 11.4 µg/mL (≈ 33 µM); with Trypanosoma cruzi [3], 14 µg/mL (≈ 40.5 µM). The Activity in data set [4] came to 0.05%; in data set [5], 0.06%; in data set [7], 0.24%; in data set [8], 2.63%; in [9], 26.47%; in [10] it was 22.14%. In data set [11], the Activity was found to be 17.31%. In [6], the viability at 10 min turned out to be 82.6%.

Turning to `NC(=S)N/N=C/c1ccc(Sc2c(F)c(F)c(C(F)(F)F)c(F)c2F)o1`, the viability in data set [1] turned out to be 72.7%. The LC50 came out at 5.1 µg/mL (≈ 12.2 µM) with Trypanosoma cruzi [2] and 4.6 µg/mL (≈ 11 µM) in the data set on Trypanosoma cruzi [3]. Besides, the Activity is 0.04% in data set [4]; 0.03% in data set [5]; 0.62% in data set [7]; 4.76% in [8]; 21.91% in [9]; 23.35% in data set [10]. Also, in data set [11], the Activity is listed as 12.55%. Besides, the viability at 10 min in data set [6] worked out at 87.4%.

As to `CN(C)c1ccc(C(=C2C=CC(=[N+](C)C)C=C2)c2ccc(N(C)C)cc2)cc1.[Cl-]` [GENTIAN VIOLET], the LC50 in the data set on Trypanosoma cruzi [2] was determined as 15.8 µg/mL; in the data set with Trypanosoma cruzi [3], 6.2 µg/mL.

For `O=C(Cn1ccnc1[N+](=O)[O-])NCc1ccccc1` [BENZNIDAZOLE], the viability in data set [1] amounted to 75.9%. For the same compound, the LC50 is 4 µg/mL (≈ 15.4 µM) in the data set on Trypanosoma cruzi [2] and 6.5 µg/mL (≈ 25 µM) in the data set with Trypanosoma cruzi [3]. In addition, the Activity stood at 0.12% in data set [4]; 0.02% in [5]; 0.51% in data set [7]; 4.78% in data set [8]; 18.79% in data set [9]; 42.51% in [10]. The Activity in data set [11] is given as 22.95%. For the same compound, in data set [6], the viability at 10 min was found to be 76.9%.

For the compound `NC(=S)N/N=C/c1ccc(Sc2ccc(C(F)(F)F)cc2[N+](=O)[O-])o1`, the viability in [1] was 79.4%. Also, the LC50 in the data set with Trypanosoma cruzi [2] was found to be 3.2 µg/mL (≈ 8.2 µM); in the data set on Trypanosoma cruzi [3], 3.4 µg/mL (≈ 8.71 µM). The Activity came out at 0.09% in data set [4]; 0.24% in data set [5]; 0.7% in [7]; 2.81% in [8]; 17.05% in data set [9]; 23.63% in data set [10]. Also, in [11], the Activity is listed as 12.48%. Further, the viability at 10 min in data set [6] is 87.2%.

As for `NC(=S)N/N=C/c1ccc(Sc2cccc(C(F)(F)F)c2)o1`, the viability in data set [1] was found to be 66.7%. Moreover, the LC50 in the data set on Trypanosoma cruzi [2] was determined as 17.8 µg/mL (≈ 51.5 µM); in the data set on Trypanosoma cruzi [3], 7.8 µg/mL (≈ 22.6 µM). For the same compound, the Activity in data set [4] came to 0.17%; in [5], 0.05%; in data set [7], 2.57%; in data set [8], 7.87%; in [9], 22.9%; in data set [10], 19.06%. In [11], the Activity came out at 8.87%. Moreover, in data set [6], the viability at 10 min came to 90.9%.
